Values joined by “and” are separate entries in the source; they are usually repeats but may differ in a detail not shown here. Equal entries are not always repeated.
Legend:
human GPR119 [1] = molecular target: T1, human GPR119 (Homo sapiens, UniProt Q8TDV5); test: beta-arrestin functional assay (DiscoverX PathHunter U2OS hGPR119 beta-arrestin cells); format: cell-based; conditions: for EC50: read-out: Human B-arrestin Functional EC50; for Emax: U2OS, read-out: Intrinsic Activity* (B-arrestin)
T1 construct: host or cells: U2OS
Method: GPR119 agonist activity was also determined with a cell-based assay utilizing DiscoverX PathHunter β-arrestin cell assay technology and their U2OS hGPR119 β-arrestin cell line (DiscoverX Cat # 93-0356C3). In this assay, agonist activation is determined by measuring agonist-induced interaction of β-arrestin with activated GPR119. A small, 42 amino acid enzyme fragment, called ProLink was appended to the C-terminus of GPR119. Arrestin was fused to the larger enzyme fragment, termed EA (Enzyme Acceptor). Activation of GPR119 stimulates binding of arrestin and forces the complementation of the two enzyme fragments, resulting in formation of a functional β-galactosidase enzyme capable of hydrolyzing substrate and generating a chemiluminescent signal.
Specifically, U2OS hGPR119 β-arrestin cells (DiscoverX 1×10^7/mL) are removed from cryopreservation and diluted in growth medium (Minimum essential medium (MEM; Gibco Cat # 11095-080), 10% heat inactivated fetal bovine serum (HIFBS; Sigma Cat # F4135-100), […] sodium pyruvate (Sigma Cat # S8636), 500 microg/mL G418 (Sigma Cat # G8168) and 250 microg/mL Hygromycin B (Invitrogen Cat # 10687-010). The cell concentration was adjusted to 1.66×10^5 cells/mL and 30 mLs of this suspension was added to a T-175 flask and incubated at 37 degrees Celsius in a humidified environment in 5% carbon dioxide. After 48 hours, the cells were removed from the T-175 flask with enzyme-free cell dissociation buffer (Gibco cat # 13151-014), centrifuged at 800×g and then re-suspended in plating medium (Opti-MEM I (Invitrogen/BRL Cat # 31985-070) and 2% charcoal dextran treated fetal bovine serum (CD serum; HyClone Cat # SH30068.03). The cell concentration was adjusted to 2.5×10^5 cells/mL with plating medium and 10 microL of this cell suspension (2500 cells) was added to each well of a white Greiner 384-well low volume assay plate (VWR cat # 82051-458) and the plates were incubated at 37 degrees Celsius in a humidified environment in 5% carbon dioxide.
After 16 hours (overnight) the assay plates were removed from the incubator and varying concentrations of each compound to be tested (diluted in assay buffer (1×HBSS+CaCl2+MgCl2 (Gibco Cat # 14025-092), 20 mM HEPES pH 7.0 (Gibco Cat # 15630-080) and 0.1% BSA (Sigma Cat # A9576)) were added to the assay plate wells in a volume of 2.5 microL (final DMSO concentration was 0.5%). After a 90 minute incubation at 37 degrees Celsius in a humidified environment in 5% carbon dioxide, 7.5 microL of Galacton Star β-galactosidase substrate (Path Hunter Detection Kit (DiscoveRx Cat # 93-0001); prepared as described in the manufacturers assay protocol) was added to each well of the assay plate. The plates were incubated at room temperature and after 60 minutes, changes in the luminescence were read with an Envision 2104 multilabel plate reader at 0.1 seconds per well. EC50 determinations were made from an agonist-response curves analyzed with a curve fitting program using a 4-parameter logistic dose response equation.
T1 sequence (P32121 whole entry partner, one chain of several): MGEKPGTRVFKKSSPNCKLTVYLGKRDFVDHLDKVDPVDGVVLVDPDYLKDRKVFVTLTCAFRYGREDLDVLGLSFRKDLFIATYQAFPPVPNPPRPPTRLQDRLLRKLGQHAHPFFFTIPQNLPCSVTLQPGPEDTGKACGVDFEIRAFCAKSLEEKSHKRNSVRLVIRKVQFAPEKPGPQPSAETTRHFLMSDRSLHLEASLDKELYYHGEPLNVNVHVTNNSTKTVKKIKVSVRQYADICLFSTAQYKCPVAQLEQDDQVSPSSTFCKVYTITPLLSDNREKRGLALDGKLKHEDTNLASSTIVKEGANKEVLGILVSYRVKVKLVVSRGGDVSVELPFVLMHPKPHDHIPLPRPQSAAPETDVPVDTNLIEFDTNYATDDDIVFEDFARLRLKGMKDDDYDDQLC

human GPR119 [2] = molecular target: T2, human GPR119 (Homo sapiens, UniProt Q8TDV5); test: beta-lactamase functional assay (hGPR119 HEK293-CRE beta-lactamase reporter); format: cell-based; conditions: for EC50: read-out: Human B-lactamase Functional EC50; for Emax: read-out: Intrinsic Activity* (B-lactamase)
T2 construct: host or cells: HEK293-CRE beta-lactamase cells
T2 sequence (Q8TDV5 1-335): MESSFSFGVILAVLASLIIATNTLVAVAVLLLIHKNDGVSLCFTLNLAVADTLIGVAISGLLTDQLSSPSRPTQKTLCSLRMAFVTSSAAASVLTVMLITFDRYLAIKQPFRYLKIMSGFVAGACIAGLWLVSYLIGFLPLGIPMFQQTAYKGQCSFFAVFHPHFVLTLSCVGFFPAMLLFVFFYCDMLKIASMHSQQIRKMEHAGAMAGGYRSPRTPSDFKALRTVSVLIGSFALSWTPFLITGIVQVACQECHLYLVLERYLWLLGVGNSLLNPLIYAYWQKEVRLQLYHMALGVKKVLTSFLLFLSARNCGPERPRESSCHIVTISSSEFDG
Method: The assay for GPR119 agonists utilizes a cell-based (hGPR119 HEK293-CRE beta-lactamase) reporter construct where agonist activation of human GPR119 is coupled to beta-lactamase production via a cyclic AMP response element (CRE). GPR119 activity is then measured utilizing a FRET-enabled beta-lactamase substrate, CCF4-AM (Live Blazer FRET-B/G Loading kit, Invitrogen cat # K1027). Specifically, hGPR119-HEK-CRE- beta-lactamase cells (Invitrogen 2.5×10^7/mL) were removed from liquid nitrogen storage, and diluted in plating medium (Dulbecco's modified Eagle medium high glucose (DMEM; Gibco Cat # 11995-065), 10% heat inactivated fetal bovine serum (HIFBS; Sigma Cat # F4135), 1×MEM Nonessential amino acids (Gibco Cat # 15630-080), 25 mM HEPES pH 7.0 (Gibco Cat # 15630-080), 200 nM potassium clavulanate (Sigma Cat # P3494). The cell concentration was adjusted using cell plating medium and 50 microL of this cell suspension ([…]) was added into each well of a black, clear bottom, poly-d-lysine coated 384-well plate (Greiner Bio-One cat# 781946) and incubated at 37 degrees Celsius in a humidified environment containing 5% carbon dioxide. After 4 hours the plating medium was removed and replaced with 40 microL of assay medium (Assay medium is plating medium without potassium clavulanate and HIFBS). Varying concentrations of each compound to be tested was then added in a volume of 10 microL (final DMSO≦0.5%) and the cells were incubated for 16 hours at 37 degrees Celsius in a humidified environment containing 5% carbon dioxide. Plates were removed from the incubator and allowed to equilibrate to room temperature for approximately 15 minutes. 10 microL of 6×CCF4/AM working dye solution (prepared according to instructions in the Live Blazer FRET-B/G Loading kit, Invitrogen cat # K1027) was added per well and incubated at room temperature for 2 hours in the dark. Fluorescence was measured on an EnVision fluorimetric plate reader, excitation 405 nm, emission 460 nm/535 nm. EC50 determinations were made from agonist-response curves analyzed with a curve fitting program using a 4-parameter logistic dose-response equation.

[3] = U2OS hGPR119 beta-arrestin cells, 90 min incubation, one value per run
[4] = percent of maximal activity relative to standard GPR119 agonist (WO2005121121) at 10 microM, one value per run
[5] = marked **: curve extrapolated to 100%, relative to standard GPR119 agonist at 10 microM

SMILES	EC50 (human GPR119 [1]; [3])	Emax (human GPR119 [1]; [4]) [%]	Intrinsic Activity* (B-arrestin) (human GPR119 [1]; [4])	other results
Cc1c(O[C@H]2CCN(C(=O)OC3(C)CC3)C[C@H]2F)ncnc1N1CCn2nccc21 (racemic) [Example 3, 1-Methylcyclopropyl (3R,4S)-4-{[6-(2,3-dihydro-1H-imidazo[1,2-b]pyrazol-1-yl)-5-methylpyrimidin-4-yl]oxy}-3-fluoropiperidine-1-carboxylate (racemic)]	74 nM and 92 nM	83	68%	
Cc1c(O[C@H]2CCN(C(=O)OC(C)C)C[C@H]2F)ncnc1N1CCn2nccc21 (racemic) [Example 4, Isopropyl (3R,4S)-4-{[6-(2,3-dihydro-1H-imidazo[1,2-b]pyrazol-1-yl)-5-methylpyrimidin-4-yl]oxy}-3-fluoropiperidine-1-carboxylate (racemic)]	53 nM	38		
Cc1c(OC2CCN(C(=O)OC(C)C)CC2)ncnc1N1CCn2nccc21 [Example 1, Isopropyl 4-{[6-(2,3-dihydro-1H-imidazo[1,2-b]pyrazol-1-yl)-5-methylpyrimidin-4-yl]oxy}piperidine-1-carboxylate]				EC50 (human GPR119 [2]; curve was extrapolated to 100% to calculate the EC50 (**), one value per run): 8190 nM and 4570 nM; EC50 (human GPR119 [2]; hGPR119 HEK293-CRE beta-lactamase cells, 16 h incubation, one value per run): 612 nM and 386 nM and 1150 nM and 1440 nM; Emax (human GPR119 [2]; [5]): 100%; Intrinsic Activity* (B-lactamase) (human GPR119 [2]; [4]): 94% and 96%; Emax (human GPR119 [2]; [4]): 110%
Cc1c(OC2CCN(C(=O)OC3(C)CC3)CC2)ncnc1N1CCn2nccc21 [Example 2, 1-Methylcyclopropyl 4-{[6-(2,3-dihydro-1H-imidazo[1,2-b]pyrazol-1-yl)-5-methylpyrimidin-4-yl]oxy}piperidine-1-carboxylate]				Emax (human GPR119 [1]; [5]): 100%; EC50 (human GPR119 [1]; curve was extrapolated to 100% to calculate the EC50 (**)): 313 nM

The next lines start with results.

EC50 (human GPR119 [1]; [3])	Emax (human GPR119 [1]; [4]) [%]	Intrinsic Activity* (B-arrestin) (human GPR119 [1]; [4])	SMILES	other results
56 nM and 49 nM		83% and 55%	Cc1c(O[C@@H]2CCN(C(=O)OC3(C)CC3)C[C@@H]2F)ncnc1N1CCn2nccc21 (single isomer, unassigned) [Example 5]	
47 nM and 121 nM		87% and 65%	Cc1c(O[C@H]2CCN(C(=O)OC3(C)CC3)C[C@H]2F)ncnc1N1CCn2nccc21 (single isomer, unassigned) [Example 6]	

Source: US20120295845A1, “IMIDAZO-PYRAZOLES AS GPR119 INHIBITORS” (Pfizer Inc, priority 2009, published 2012)
